Assay in all cases: AK assay 384-well format, Prestwick library screening
One experiment has as its system E. faecium. Type of experiment: cell-based, Enterococcus faecium. To be noted: 50 μM final drug concentration; for fold induction at 50 µM: Enterococcus faecium, 3 h.
The subject of experiment [1] is S. aureus strain USA300-0114. Type of experiment: cell-based, Staphylococcus aureus. Conditions: 50 μM final drug concentration; for fold induction at 50 µM: Staphylococcus aureus, USA300, 3 h.
In a further experiment the test system is K. pneumoniae. Type of experiment: cell-based, Klebsiella pneumoniae. To be noted: 50 μM final drug concentration; for fold induction at 50 µM: Klebsiella pneumoniae, 3 h.
In experiment [2] the test system is A. baumannii strain 98-37-09. The format is cell-based, Acinetobacter baumannii. Conditions: 50 μM final drug concentration; for fold induction at 50 µM: Acinetobacter baumannii, 983709, 3 h.
The next experiment has as its system P. aeruginosa. Type of experiment: cell-based, Pseudomonas aeruginosa. To be noted: 50 μM final drug concentration; for fold induction at 50 µM: Pseudomonas aeruginosa, 3 h.
The subject of the next experiment is E. cloacae. The format is cell-based, Enterobacter cloacae. To be noted: 50 μM final drug concentration; for fold induction at 50 µM: Enterobacter cloacae, 3 h.
In a further experiment the test system is E. coli. Type of experiment: cell-based, Escherichia coli. Conditions: 50 μM final drug concentration; for fold induction at 50 µM: Escherichia coli, 3 h.
The mark [3] stands for this setting: planktonic, cutoff for positive-scoring molecules 3-fold increase.

Where a name gives a salt, the structure may show the parent alone. Read-outs that look alike come from different tables or passages of the source.

Take `C[N+](C)(C)CCOC(N)=O` [Carbachol]: the fold induction at 50 µM in the experiment on E. faecium (cutoff for positive-scoring molecules 3-fold increase, read-out: AK-based Prestwick Library Screening Results, E. faecium (fold increase in extracellular AK activity)) stood at 1.1; in experiment [1] (cutoff for positive-scoring molecules 3-fold increase, read-out: AK-based Prestwick Library Screening Results, S. aureus (fold increase in extracellular AK activity)) it was 1.4; with K. pneumoniae (cutoff for positive-scoring molecules 3-fold increase, read-out: AK-based Prestwick Library Screening Results, K. pneumoniae (fold increase in extracellular AK activity)), 1.2; in experiment [2] (cutoff for positive-scoring molecules 3-fold increase, read-out: AK-based Prestwick Library Screening Results, A. baumannii (fold increase in extracellular AK activity)), 1.3; in the experiment on P. aeruginosa (cutoff for positive-scoring molecules 3-fold increase, read-out: AK-based Prestwick Library Screening Results, P. aeruginosa (fold increase in extracellular AK activity)) it was 1.2; in the experiment on E. cloacae (cutoff for positive-scoring molecules 3-fold increase, read-out: AK-based Prestwick Library Screening Results, E. cloacae (fold increase in extracellular AK activity)), 1.2. Moreover, in the experiment on E. coli (cutoff for positive-scoring molecules 3-fold increase, read-out: AK-based Prestwick Library Screening Results, E. coli (fold increase in extracellular AK activity)), the fold induction at 50 µM came to 1.2.
Consider `OC(c1ccccc1)(c1ccccc1)C1CCNCC1` [Azacyclonol], for which the fold induction at 50 µM with E. faecium (384-well format, […], read-out: AK-based Prestwick Library Screening Results, E. faecium (increase in extracellular AK activity)) turned out to be 0.9; in experiment [1] (384-well format, […], read-out: AK-based Prestwick Library Screening Results, S. aureus (increase in extracellular AK activity)) it was 0.7; in the experiment on K. pneumoniae (384-well format, […], read-out: AK-based Prestwick Library Screening Results, K. pneumoniae (increase in extracellular AK activity)), 0.6; in experiment [2] (384-well format, […], read-out: AK-based Prestwick Library Screening Results, A. baumannii (increase in extracellular AK activity)), 0.6; in the experiment with P. aeruginosa (384-well format, […], read-out: AK-based Prestwick Library Screening Results, P. aeruginosa (increase in extracellular AK activity)) it was 0.6; in the experiment with E. cloacae (384-well format, […], read-out: AK-based Prestwick Library Screening Results, E. cloacae (increase in extracellular AK activity)), 0.9. Also, the fold induction at 50 µM in the experiment with E. coli (384-well format, […], read-out: AK-based Prestwick Library Screening Results, E. coli (increase in extracellular AK activity)) is 0.6.
On to `Cc1cccc(C)c1NC(=O)C(C)N` (centres unmarked) [Tocainide hydrochloride], for which the fold induction at 50 µM in the experiment with E. faecium (planktonic E. faecium, positive cutoff 3-fold increase, read-out: AK-based Prestwick library screening result, E. faecium (fold increase in extracellular AK activity)) is 1; in experiment [1] (planktonic S. aureus, positive cutoff 3-fold increase, read-out: AK-based Prestwick library screening result, S. aureus (fold increase in extracellular AK activity)), 1.1; with K. pneumoniae (planktonic K. pneumoniae, positive cutoff 3-fold increase, read-out: AK-based Prestwick library screening result, K. pneumoniae (fold increase in extracellular AK activity)), 1.1; in experiment [2] (planktonic A. baumannii, positive cutoff 3-fold increase, read-out: AK-based Prestwick library screening result, A. baumannii (fold increase in extracellular AK activity)) it was 1.6; in the experiment with P. aeruginosa (planktonic P. aeruginosa, positive cutoff 3-fold increase, read-out: AK-based Prestwick library screening result, P. aeruginosa (fold increase in extracellular AK activity)), 1.1; in the experiment with E. cloacae (planktonic E. cloacae, positive cutoff 3-fold increase, read-out: AK-based Prestwick library screening result, E. cloacae (fold increase in extracellular AK activity)) it was 1.4. Further, in the experiment with E. coli (planktonic E. coli, positive cutoff 3-fold increase, read-out: AK-based Prestwick library screening result, E. coli (fold increase in extracellular AK activity)), the fold induction at 50 µM turned out to be 1.2.
For the molecule `CC1=C(/C=C/C(C)=C/C=C/C(C)=C/C(=O)O)C(C)(C)CCC1` [Retinoic acid], the fold induction at 50 µM in the experiment with E. faecium (384-well format, cutoff for positive-scoring molecules 3-fold increase, read-out: AK-based Prestwick Library Screening Results, E. faecium (increase in extracellular AK activity)) was determined as 1; in experiment [1] (384-well format, cutoff for positive-scoring molecules 3-fold increase, read-out: AK-based Prestwick Library Screening Results, S. aureus (increase in extracellular AK activity)), 0.8; in the experiment with K. pneumoniae (384-well format, cutoff for positive-scoring molecules 3-fold increase, read-out: AK-based Prestwick Library Screening Results, K. pneumoniae (increase in extracellular AK activity)), 0.6; in experiment [2] (384-well format, cutoff for positive-scoring molecules 3-fold increase, read-out: AK-based Prestwick Library Screening Results, A. baumannii (increase in extracellular AK activity)), 0.8; in the experiment with P. aeruginosa (384-well format, cutoff for positive-scoring molecules 3-fold increase, read-out: AK-based Prestwick Library Screening Results, P. aeruginosa (increase in extracellular AK activity)), 0.7; in the experiment on E. cloacae (384-well format, cutoff for positive-scoring molecules 3-fold increase, read-out: AK-based Prestwick Library Screening Results, E. cloacae (increase in extracellular AK activity)), 0.9. Further, the fold induction at 50 µM with E. coli (384-well format, cutoff for positive-scoring molecules 3-fold increase, read-out: AK-based Prestwick Library Screening Results, E. coli (increase in extracellular AK activity)) stood at 0.7.
As to `CC1(C)O[C@@H]2C[C@H]3[C@@H]4C[C@H](F)C5=CC(=O)CC[C@]5(C)[C@H]4[C@@H](O)C[C@]3(C)[C@]2(C(=O)CO)O1` [Flurandrenolide], the fold induction at 50 µM in the experiment on E. faecium (planktonic, cutoff for positive 3-fold increase, read-out: AK-based Prestwick Library Screening Results, E. faecium (fold increase in extracellular AK activity)) was 0.8; in experiment [1] (planktonic, cutoff for positive 3-fold increase, read-out: AK-based Prestwick Library Screening Results, S. aureus (fold increase in extracellular AK activity)), 0.4; in the experiment on K. pneumoniae (planktonic, cutoff for positive 3-fold increase, read-out: AK-based Prestwick Library Screening Results, K. pneumoniae (fold increase in extracellular AK activity)), 0.5; in experiment [2] (planktonic, cutoff for positive 3-fold increase, read-out: AK-based Prestwick Library Screening Results, A. baumannii (fold increase in extracellular AK activity)), 0.5; in the experiment with P. aeruginosa (planktonic, cutoff for positive 3-fold increase, read-out: AK-based Prestwick Library Screening Results, P. aeruginosa (fold increase in extracellular AK activity)) it was 0.4; in the experiment on E. cloacae (planktonic, cutoff for positive 3-fold increase, read-out: AK-based Prestwick Library Screening Results, E. cloacae (fold increase in extracellular AK activity)) it was 0.3. In addition, the fold induction at 50 µM in the experiment with E. coli (planktonic, cutoff for positive 3-fold increase, read-out: AK-based Prestwick Library Screening Results, E. coli (fold increase in extracellular AK activity)) was 0.5.
As to `C=CC[N@@+]12CC[C@@]34c5ccccc5N5/C=C6/[C@H]7C[C@H]8[C@@]9(CC[N@@+]8(CC=C)C/C7=C/CO)c7ccccc7N(/C=C(/[C@@H](C[C@@H]31)/C(=C\CO)C2)[C@H]54)[C@@H]69.[Cl-].[Cl-]` [Alcuronium chloride], the “AK-based Prestwick library screening result, E. faecium (fold increase in extracellular AK activity)” value in the experiment on E. faecium (planktonic E. faecium, […]) was found to be 1.0. Besides, the “AK-based Prestwick library screening result, S. aureus (fold increase in extracellular AK activity)” value in experiment [1] (planktonic S. aureus, […]) amounted to 1.2. Further, the “AK-based Prestwick library screening result, K. pneumoniae (fold increase in extracellular AK activity)” value in the experiment with K. pneumoniae (planktonic K. pneumoniae, […]) is 1.0. The “AK-based Prestwick library screening result, A. baumannii (fold increase in extracellular AK activity)” value in experiment [2] (planktonic A. baumannii, […]) stood at 1.4. Also, in the experiment with P. aeruginosa (planktonic P. aeruginosa, […]), the “AK-based Prestwick library screening result, P. aeruginosa (fold increase in extracellular AK activity)” value stood at 1.0. Also, in the experiment on E. cloacae (planktonic E. cloacae, […]), the “AK-based Prestwick library screening result, E. cloacae (fold increase in extracellular AK activity)” value worked out at 2.2. Also, the “AK-based Prestwick library screening result, E. coli (fold increase in extracellular AK activity)” value with E. coli (planktonic E. coli, […]) is listed as 1.4.
On to `Cl.OC1CCCCC1N1CCC(c2ccccc2)CC1` (stereo not drawn) [L(−)-vesamicol hydrochloride], for which the “AK-based Prestwick Library Screening Results, E. faecium (fold increase in extracellular AK activity)” value in the experiment with E. faecium (setting [3]) is 0.9. In addition, the “AK-based Prestwick Library Screening Results, S. aureus (fold increase in extracellular AK activity)” value in experiment [1] (setting [3]) is given as 0.8. Further, in the experiment with K. pneumoniae (setting [3]), the “AK-based Prestwick Library Screening Results, K. pneumoniae (fold increase in extracellular AK activity)” value is 0.7. Moreover, in experiment [2] (setting [3]), the “AK-based Prestwick Library Screening Results, A. baumannii (fold increase in extracellular AK activity)” value was determined as 0.8. The “AK-based Prestwick Library Screening Results, P. aeruginosa (fold increase in extracellular AK activity)” value in the experiment with P. aeruginosa (setting [3]) is 0.8. Moreover, the “AK-based Prestwick Library Screening Results, E. cloacae (fold increase in extracellular AK activity)” value in the experiment on E. cloacae (setting [3]) stood at 1.2. Moreover, the “AK-based Prestwick Library Screening Results, E. coli (fold increase in extracellular AK activity)” value with E. coli (setting [3]) was 0.8.
With `CN1C(C)(C)CCCC1(C)C` [Pempidine tartrate], the fold induction at 50 µM amounted to 1 in the experiment on E. faecium (planktonic, […], read-out: AK-based Prestwick Library Screening Results, E. faecium (fold increase in extracellular AK activity)); 1.1 in experiment [1] (planktonic, […], read-out: AK-based Prestwick Library Screening Results, S. aureus (fold increase in extracellular AK activity)); 1 in the experiment with K. pneumoniae (planktonic, […], read-out: AK-based Prestwick Library Screening Results, K. pneumoniae (fold increase in extracellular AK activity)); 1.1 in experiment [2] (planktonic, […], read-out: AK-based Prestwick Library Screening Results, A. baumannii (fold increase in extracellular AK activity)); 1.1 in the experiment with P. aeruginosa (planktonic, […], read-out: AK-based Prestwick Library Screening Results, P. aeruginosa (fold increase in extracellular AK activity)); 1.5 in the experiment on E. cloacae (planktonic, […], read-out: AK-based Prestwick Library Screening Results, E. cloacae (fold increase in extracellular AK activity)). The fold induction at 50 µM in the experiment on E. coli (planktonic, […], read-out: AK-based Prestwick Library Screening Results, E. coli (fold increase in extracellular AK activity)) stood at 1.1.

The values above are taken from patent US10004701B2, “Methods and compositions for treating infection” (UNIVERSITY OF ROCHESTER, priority 2012, dated 2018).
